This note sets out measurements from ChEMBL document CHEMBL6083262, “Stereorandomized Oncocins with Preserved Ribosome Binding and Antibacterial Activity” (J Med Chem, 2024).

The nature of data set [1]: Hemolytic activity in human RBC incubated for 4 hrs. The format is toxicity, cell-based. Particulars: erythrocyte.
The next data set concerns Pseudomonas aeruginosa. In words: Antimicrobial activity against Pseudomonas aeruginosa PAO1 incubated for 16 to 20 hrs in full muller hinton medium by broth microdilution method. The format is functional. Particulars: time 16-20 hrs.
In data set [2] the test system is Staphylococcus aureus. The data set can be described thus: Antimicrobial activity against methicillin-resistant Staphylococcus aureus COL incubated for 16 to 20 hrs in full muller hinton medium by broth microdilution method. The format is functional. Particulars: time 16-20 hrs.
In a further data set the test system is rRNA. The data set can be described thus: Binding affinity to [gamma32 P-ATP] labeled Escherichia coli MG1655 23S ribosomal RNA (5-CCCTTGGGACCTACTTC-3') at U2506 position assessed as increase in band intensity at 1 uM incubated for 2.5 hrs in full muller hinton medium by CMCT based gel electrophoresis. The format is nucleic-acid assay.
The subject of data set [3] is Staphylococcus aureus. In words: Antimicrobial activity against methicillin-resistant Staphylococcus aureus COL incubated for 16 to 20 hrs in 12.5 % muller hinton medium by broth microdilution method. Particulars: time 16-20 hrs. The format is functional.
The subject of the next data set is Acinetobacter baumannii. In words: Antimicrobial activity against Acinetobacter baumannii ATCC 19606 incubated for 16 to 20 hrs in full muller hinton medium by broth microdilution method. The format is functional. The note with it: time 16-20 hrs.
A further data set relates to Klebsiella pneumoniae. In words: Antimicrobial activity against Klebsiella pneumoniae NCTC 418 incubated for 16 to 20 hrs in full muller hinton medium by broth microdilution method. The format is functional. The note with it: time 16-20 hrs.

The source made the active and inactive calls. The calls are words filed in the database; no cut-off is given here. Non-standard residues stand in square brackets, D forms with d. Residues, ends and D or L forms follow the SMILES beside them. ξ: configuration not given here. ξY = NC(Cc1ccc(O)cc1)C(=O)O; ξR = N=C(N)NCCCC(N)C(=O)O; ξN = NC(=O)CC(N)C(=O)O; Nleu = CC(C)CNCC(=O)O; ξI = CCC(C)C(N)C(=O)O; Nlys = NCCCCNCC(=O)O; ξP = O=C(O)C1CCCN1

In turn, `CC(C)C[C@H](NC(=O)CN(CC(C)C)C(=O)[C@H](CC(C)C)NC(=O)CN(CCCCN)C(=O)[C@H](CC(C)C)NC(=O)CN(CC(C)C)C(=O)[C@H](CCCCN)NC(=O)CN(CC(C)C)C(=O)[C@H](CC(C)C)NC(=O)CN(CCCCN)C(=O)[C@@H](N)CCCCN)C(N)=O` (H-K[Nlys]L[Nleu]K[Nleu]L[Nlys]L[Nleu]L-NH2) returned an MHC in data set [1] of more than 2000 µg/mL.

In data set [1], `CC[C@H](C)[C@H](NC(=O)[C@H](CCCNC(=N)N)NC(=O)[C@H](CCCNC(=N)N)NC(=O)[C@@H]1CCCN1C(=O)[C@H]1CCCN1C(=O)[C@H](CCCNC(=N)N)NC(=O)[C@@H]1CCCN1C(=O)[C@H](CCCNC(=N)N)NC(=O)[C@@H]1CCCN1C(=O)[C@H](CC(C)C)NC(=O)[C@H](Cc1ccc(O)cc1)NC(=O)[C@@H]1CCCN1C(=O)[C@@H]1CCCN1C(=O)[C@H](CCCCN)NC(=O)[C@H](CC(=O)O)NC(=O)[C@@H](N)C(C)C)C(=O)N[C@@H](Cc1ccc(O)cc1)C(=O)N[C@@H](CC(N)=O)C(=O)N[C@@H](CCCNC(=N)N)C(N)=O` (H-VDKPPYLPRPR[dP]PRRIYNR-NH2) registered an MHC of more than 1000 µg/mL. Moreover, the MIC in the data set with Pseudomonas aeruginosa and against Staphylococcus aureus [2] was more than 64 µg/mL each time.

In turn, `CC[C@@H](C)[C@@H](NC(=O)[C@@H](CCCNC(=N)N)NC(=O)[C@@H](CCCNC(=N)N)NC(=O)[C@H]1CCCN1C(=O)[C@H]1CCCN1C(=O)[C@H](CCCNC(=N)N)NC(=O)[C@@H]1CCCN1C(=O)[C@H](CCCNC(=N)N)NC(=O)[C@@H]1CCCN1C(=O)[C@H](CC(C)C)NC(=O)[C@H](Cc1ccc(O)cc1)NC(=O)[C@@H]1CCCN1C(=O)[C@@H]1CCCN1C(=O)[C@H](CCCCN)NC(=O)[C@H](CC(=O)O)NC(=O)[C@@H](N)C(C)C)C(=O)N[C@H](Cc1ccc(O)cc1)C(=O)N[C@H](CC(N)=O)C(=O)N[C@H](CCCNC(=N)N)C(N)=O` (H-VDKPPYLPRPR[dP][dP][dR][dR][dI][dY][dN][dR]-NH2) came in with an MHC in data set [1] of more than 1000 µg/mL. Moreover, the outcome in the data set with rRNA was Active. Also, the MIC against Pseudomonas aeruginosa and against Staphylococcus aureus [2] was more than 64 µg/mL throughout.

As for `CC[C@H](C)[C@H](NC(=O)[C@H](CCCNC(=N)N)NC(=O)[C@H](CCCNC(=N)N)NC(=O)[C@@H]1CCCN1C(=O)[C@@H]1CCCN1C(=O)[C@@H](CCCNC(=N)N)NC(=O)[C@@H]1CCCN1C(=O)[C@H](CCCNC(=N)N)NC(=O)[C@@H]1CCCN1C(=O)[C@H](CC(C)C)NC(=O)[C@H](Cc1ccc(O)cc1)NC(=O)[C@@H]1CCCN1C(=O)[C@@H]1CCCN1C(=O)[C@H](CCCCN)NC(=O)[C@H](CC(=O)O)NC(=O)[C@@H](N)C(C)C)C(=O)N[C@@H](Cc1ccc(O)cc1)C(=O)N[C@@H](CC(N)=O)C(=O)N[C@@H](CCCNC(=N)N)C(N)=O` (H-VDKPPYLPRP[dR]PPRRIYNR-NH2), in data set [1], the MHC was more than 1000 µg/mL. Also, the MIC against Staphylococcus aureus [3], against Pseudomonas aeruginosa and against Staphylococcus aureus [2] was more than 64 µg/mL each time.

In data set [1], `CC[C@@H](C)[C@@H](NC(=O)[C@@H](CCCNC(=N)N)NC(=O)[C@@H](CCCNC(=N)N)NC(=O)[C@H]1CCCN1C(=O)[C@H]1CCCN1C(=O)[C@@H](CCCNC(=N)N)NC(=O)[C@@H]1CCCN1C(=O)[C@H](CCCNC(=N)N)NC(=O)[C@@H]1CCCN1C(=O)[C@H](CC(C)C)NC(=O)[C@H](Cc1ccc(O)cc1)NC(=O)[C@@H]1CCCN1C(=O)[C@@H]1CCCN1C(=O)[C@H](CCCCN)NC(=O)[C@H](CC(=O)O)NC(=O)[C@@H](N)C(C)C)C(=O)N[C@H](Cc1ccc(O)cc1)C(=O)N[C@H](CC(N)=O)C(=O)N[C@H](CCCNC(=N)N)C(N)=O` (H-VDKPPYLPRP[dR][dP][dP][dR][dR][dI][dY][dN][dR]-NH2) registered an MHC of more than 1000 µg/mL. Further, the MIC in the data set with Staphylococcus aureus [3] and against Staphylococcus aureus [2] was more than 64 µg/mL each time. The result in the data set on rRNA was Active.

`CC[C@H](C)[C@H](NC(=O)[C@H](CCCNC(=N)N)NC(=O)[C@H](CCCNC(=N)N)NC(=O)[C@@H]1CCCN1C(=O)[C@@H]1CCCN1C(=O)[C@H](CCCNC(=N)N)NC(=O)[C@H]1CCCN1C(=O)[C@H](CCCNC(=N)N)NC(=O)[C@@H]1CCCN1C(=O)[C@H](CC(C)C)NC(=O)[C@H](Cc1ccc(O)cc1)NC(=O)[C@@H]1CCCN1C(=O)[C@@H]1CCCN1C(=O)[C@H](CCCCN)NC(=O)[C@H](CC(=O)O)NC(=O)[C@@H](N)C(C)C)C(=O)N[C@@H](Cc1ccc(O)cc1)C(=O)N[C@@H](CC(N)=O)C(=O)N[C@@H](CCCNC(=N)N)C(N)=O` (H-VDKPPYLPR[dP]RPPRRIYNR-NH2) came in with an MHC in data set [1] of more than 1000 µg/mL. In addition, the MIC in the data set with Staphylococcus aureus [3], with Pseudomonas aeruginosa and in the data set on Staphylococcus aureus [2] was more than 64 µg/mL throughout.

Turning to `CCC(C)C(NC(=O)C(CCCNC(=N)N)NC(=O)C(CCCNC(=N)N)NC(=O)C1CCCN1C(=O)C1CCCN1C(=O)C(CCCNC(=N)N)NC(=O)C1CCCN1C(=O)[C@H](CCCNC(=N)N)NC(=O)[C@@H]1CCCN1C(=O)[C@H](CC(C)C)NC(=O)[C@H](Cc1ccc(O)cc1)NC(=O)[C@@H]1CCCN1C(=O)[C@@H]1CCCN1C(=O)[C@H](CCCCN)NC(=O)[C@H](CC(=O)O)NC(=O)[C@@H](N)C(C)C)C(=O)NC(Cc1ccc(O)cc1)C(=O)NC(CC(N)=O)C(=O)NC(CCCNC(=N)N)C(N)=O` (some centres not stated) (H-VDKPPYLPR[ξP][ξR][ξP][ξP][ξR][ξR][ξI][ξY][ξN][ξR]-NH2), the MHC in data set [1] is more than 1000 µg/mL. The MIC against Staphylococcus aureus [2] is more than 64 µg/mL.

For `CC[C@H](C)[C@H](NC(=O)[C@H](CCCNC(=N)N)NC(=O)[C@H](CCCNC(=N)N)NC(=O)[C@@H]1CCCN1C(=O)[C@@H]1CCCN1C(=O)[C@H](CCCNC(=N)N)NC(=O)[C@@H]1CCCN1C(=O)[C@@H](CCCNC(=N)N)NC(=O)[C@@H]1CCCN1C(=O)[C@H](CC(C)C)NC(=O)[C@H](Cc1ccc(O)cc1)NC(=O)[C@@H]1CCCN1C(=O)[C@@H]1CCCN1C(=O)[C@H](CCCCN)NC(=O)[C@H](CC(=O)O)NC(=O)[C@@H](N)C(C)C)C(=O)N[C@@H](Cc1ccc(O)cc1)C(=O)N[C@@H](CC(N)=O)C(=O)N[C@@H](CCCNC(=N)N)C(N)=O` (H-VDKPPYLP[dR]PRPPRRIYNR-NH2), the MIC against Acinetobacter baumannii, against Staphylococcus aureus [3], in the data set on Pseudomonas aeruginosa and in the data set with Staphylococcus aureus [2] was more than 64 µg/mL each time. Moreover, the MHC in data set [1] was more than 1000 µg/mL.

As for `CCC(C)C(NC(=O)C(CCCNC(=N)N)NC(=O)C(CCCNC(=N)N)NC(=O)C1CCCN1C(=O)C1CCCN1C(=O)C(CCCNC(=N)N)NC(=O)C1CCCN1C(=O)C(CCCNC(=N)N)NC(=O)[C@@H]1CCCN1C(=O)[C@H](CC(C)C)NC(=O)[C@H](Cc1ccc(O)cc1)NC(=O)[C@@H]1CCCN1C(=O)[C@@H]1CCCN1C(=O)[C@H](CCCCN)NC(=O)[C@H](CC(=O)O)NC(=O)[C@@H](N)C(C)C)C(=O)NC(Cc1ccc(O)cc1)C(=O)NC(CC(N)=O)C(=O)NC(CCCNC(=N)N)C(N)=O` (some centres not stated) (H-VDKPPYLP[ξR][ξP][ξR][ξP][ξP][ξR][ξR][ξI][ξY][ξN][ξR]-NH2), the MHC in data set [1] is more than 1000 µg/mL. In addition, the MIC with Pseudomonas aeruginosa and against Staphylococcus aureus [2] was more than 64 µg/mL each time.

Turning to `CC[C@H](C)[C@H](NC(=O)[C@H](CCCNC(=N)N)NC(=O)[C@H](CCCNC(=N)N)NC(=O)[C@@H]1CCCN1C(=O)[C@@H]1CCCN1C(=O)[C@H](CCCNC(=N)N)NC(=O)[C@@H]1CCCN1C(=O)[C@H](CCCNC(=N)N)NC(=O)[C@H]1CCCN1C(=O)[C@H](CC(C)C)NC(=O)[C@H](Cc1ccc(O)cc1)NC(=O)[C@@H]1CCCN1C(=O)[C@@H]1CCCN1C(=O)[C@H](CCCCN)NC(=O)[C@H](CC(=O)O)NC(=O)[C@@H](N)C(C)C)C(=O)N[C@@H](Cc1ccc(O)cc1)C(=O)N[C@@H](CC(N)=O)C(=O)N[C@@H](CCCNC(=N)N)C(N)=O` (H-VDKPPYL[dP]RPRPPRRIYNR-NH2), the MIC against Klebsiella pneumoniae, with Acinetobacter baumannii, against Pseudomonas aeruginosa and in the data set with Staphylococcus aureus [2] was more than 64 µg/mL throughout. For the same compound, the MHC in data set [1] was more than 1000 µg/mL.

As for `CCC(C)C(NC(=O)C(CCCNC(=N)N)NC(=O)C(CCCNC(=N)N)NC(=O)C1CCCN1C(=O)C1CCCN1C(=O)C(CCCNC(=N)N)NC(=O)C1CCCN1C(=O)C(CCCNC(=N)N)NC(=O)C1CCCN1C(=O)[C@H](CC(C)C)NC(=O)[C@H](Cc1ccc(O)cc1)NC(=O)[C@@H]1CCCN1C(=O)[C@@H]1CCCN1C(=O)[C@H](CCCCN)NC(=O)[C@H](CC(=O)O)NC(=O)[C@@H](N)C(C)C)C(=O)NC(Cc1ccc(O)cc1)C(=O)NC(CC(N)=O)C(=O)NC(CCCNC(=N)N)C(N)=O` (some centres not stated) (H-VDKPPYL[ξP][ξR][ξP][ξR][ξP][ξP][ξR][ξR][ξI][ξY][ξN][ξR]-NH2), the MHC in data set [1] is more than 1000 µg/mL. For the same compound, the MIC with Pseudomonas aeruginosa and against Staphylococcus aureus [2] was more than 64 µg/mL in each case.

Regarding `CC[C@H](C)[C@H](NC(=O)[C@H](CCCNC(=N)N)NC(=O)[C@H](CCCNC(=N)N)NC(=O)[C@@H]1CCCN1C(=O)[C@@H]1CCCN1C(=O)[C@H](CCCNC(=N)N)NC(=O)[C@@H]1CCCN1C(=O)[C@H](CCCNC(=N)N)NC(=O)[C@@H]1CCCN1C(=O)[C@H](CC(C)C)NC(=O)[C@@H](Cc1ccc(O)cc1)NC(=O)[C@@H]1CCCN1C(=O)[C@@H]1CCCN1C(=O)[C@H](CCCCN)NC(=O)[C@H](CC(=O)O)NC(=O)[C@@H](N)C(C)C)C(=O)N[C@@H](Cc1ccc(O)cc1)C(=O)N[C@@H](CC(N)=O)C(=O)N[C@@H](CCCNC(=N)N)C(N)=O` (H-VDKPP[dY]LPRPRPPRRIYNR-NH2), the MIC in the data set on Acinetobacter baumannii, with Pseudomonas aeruginosa and in the data set on Staphylococcus aureus [2] was more than 64 µg/mL in each case. The MHC in data set [1] was more than 1000 µg/mL.
